Results on 21 compounds are retold here after patent US20250074890A1, “CYANOPYRIDINE AND CYANOPYRIMIDINE BCL6 DEGRADERS” (DANA-FARBER CANCER INSTITUTE, INC., priority 2021, published 2025).

Counter-ions that a name gives are not always drawn. Some results are limits rather than exact numbers.

The term DC50 denotes the midpoint of the concentration-degradation curve. Higher therefore signals a less potent degrader.

The first test deals with T1, BCL6 (Homo sapiens, UniProt P41182).
T1 construct: Endogenous BCL6 was tagged with the 11-amino acid SmBiT through CRISPR/Cas9 gene editing; endogenous in cells; host or cells: Su-DHL-4 (CRISPR/Cas9 knock-in, single cell clone)
The experiment in a line: HiBiT cellular degradation assay in Su-DHL-4 cells. The test is classed as cell-based. The following applies: concentration to reach 50% degradation of endogenous SmBiT-tagged BCL6, 24 hours of compound treatment. The protocol: DC50 (concentration to reach 50% degradation) values were determined from a cellular degradation assay (HiBiT, Promega™) in Su-DHL-4 cells (Table 1). Endogenous BCL6 was tagged with the 11-amino acid SmBiT through CRISPR/Cas9 gene editing and single cell clone selection. After 24 hours of compound treatment, cells were lysed and incubated with LgBiT protein to reconstitute intact nanoluciferase. Substrate was then added and relative luciferase units were measured. Degradation levels for each treatment were taken as a percentage compared to the control, 100% DMSO (Prism).
(The HiBiT peptide binds its large partner to form an active luciferase.)
In the case of `C[C@@H]1CN(c2nc(Nc3ccc4c(c3)cc(OC[C@H]3CNCCO3)c(=O)n4C)c(Cl)cc2C#N)C[C@H](C)[C@@H]1F` [Compound 71, 5-Chloro-2-((3S,4S,5R)-4-fluoro-3,5-dimethylpiperidin-1-yl)-6-((1-methyl-3-((R)-morpholin-2-ylmethoxy)-2-oxo-1,2-dihydroquinolin-6-yl)amino)nicotinonitrile], the DC50 is greater than 0.4 µM.
For the compound `CNC(=O)COc1cc2cc(Nc3nc(N4C[C@@H](C)[C@@H](F)[C@@H](C)C4)c(C#N)cc3Cl)ccc2n(CCN(C)C)c1=O` [Compound 72, 2-((6-((3-Chloro-5-cyano-6-((3S,4S,5R)-4-fluoro-3,5-dimethylpiperidin-1-yl)pyridin-2-yl)amino)-1-(2-(dimethylamino)ethyl)-2-oxo-1,2-dihydroquinolin-3-yl)oxy)-N-methylacetamide], the DC50 came out at 0.002 µM.
Take `CNC(=O)COc1cc2cc(Nc3nc(N4C[C@@H](C)[C@@H](O)[C@@H](C)C4)c(C#N)cc3Cl)ccc2n(CCN(C)C)c1=O` [Compound 73, 2-((6-((3-chloro-5-cyano-6-((3S,4S,5R)-4-hydroxy-3,5-dimethylpiperidin-1-yl)pyridin-2-yl)amino)-1-(2-(dimethylamino)ethyl)-2-oxo-1,2-dihydroquinolin-3-yl)oxy)-N-methylacetamide]: the DC50 was 0.009 µM.
In turn, `C[C@@H]1CN(c2nc(Nc3ccc4c(c3)n(CCC(C)(C)O)c(=O)n4C)c(Cl)cc2C#N)C[C@H](O)C1(F)F` [Compound 74, 5-chloro-2-((3S,5R)-4,4-difluoro-3-hydroxy-5-methylpiperidin-1-yl)-6-((3-(3-hydroxy-3-methylbutyl)-1-methyl-2-oxo-2,3-dihydro-1H-benzo[d]imidazol-5-yl)amino)nicotinonitrile] yielded a DC50 of 0.022 µM.
`C[C@H]1CN(c2nc(Nc3ccc4c(c3)n(CCC(C)(C)O)c(=O)n4C)c(Cl)cc2C#N)C[C@@H](O)C1(F)F` [Compound 75, 5-chloro-2-((3R,5S)-4,4-difluoro-3-hydroxy-5-methylpiperidin-1-yl)-6-((3-(3-hydroxy-3-methylbutyl)-1-methyl-2-oxo-2,3-dihydro-1H-benzo[d]imidazol-5-yl)amino)nicotinonitrile] showed a DC50 greater than 0.4 µM.
As to `CNC(=O)COc1cc2cc(Nc3nc(N4CC(C)CC(O)C4)c(C#N)cc3Cl)ccc2n(CCN(C)C)c1=O` (stereo not drawn) [Compound 76, 2-((6-((3-Chloro-5-cyano-6-(3-hydroxy-5-methylpiperidin-1-yl)pyridin-2-yl)amino)-1-(2-(dimethylamino)ethyl)-2-oxo-1,2-dihydroquinolin-3-yl)oxy)-N-methylacetamide], the DC50 was determined as 0.004 µM.
For the compound `CNC(=O)COc1cc2cc(Nc3nc(N4C[C@@H](C)C(F)[C@@H](C)C4)c(C#N)cc3Cl)ccc2n(CCN(C)C)c1=O` (stereo partly drawn) [Compound 77, 2-((6-((3-Chloro-5-cyano-6-((3R,4R,5S)-4-fluoro-3,5-dimethylpiperidin-1-yl)pyridin-2-yl)amino)-1-(2-(dimethylamino)ethyl)-2-oxo-1,2-dihydroquinolin-3-yl)oxy)-N-methylacetamide], half-maximal degradation (DC50) was put at 0.004 µM.
Still for that read-out and setting: under `CNC(=O)COc1cc2cc(Nc3nc(N4C[C@@H](C)C[C@@H](C(=O)O)C4)c(C#N)cc3Cl)ccc2n(C)c1=O` [Compound 78, (3R,5S)-1-(5-chloro-3-cyano-6-((1-methyl-3-(2-(methylamino)-2-oxoethoxy)-2-oxo-1,2-dihydroquinolin-6-yl)amino)pyridin-2-yl)-5-methylpiperidine-3-carboxylic acid] stands greater than 0.4 µM.
The same measure, in the same setting: the result for `CNC(=O)COc1cc2cc(Nc3nc(N4C[C@H](C)C[C@H](C(=O)O)C4)c(C#N)cc3Cl)ccc2n(C)c1=O` [Compound 79, (3S,5R)-1-(5-chloro-3-cyano-6-((1-methyl-3-(2-(methylamino)-2-oxoethoxy)-2-oxo-1,2-dihydroquinolin-6-yl)amino)pyridin-2-yl)-5-methylpiperidine-3-carboxylic acid] reads 0.012 µM.
`C[C@@H]1CN(c2nc(Nc3ccc4c(c3)n(CCC(C)(C)O)c(=O)n4C)c(F)cc2C#N)C[C@H](N)C1(F)F` [Compound 80, 2-((3S,5R)-3-Amino-4,4-difluoro-5-methylpiperidin-1-yl)-5-fluoro-6-((3-(3-hydroxy-3-methylbutyl)-1-methyl-2-oxo-2,3-dihydro-1H-benzo[d]imidazol-5-yl)amino)nicotinonitrile hydrochloride] yielded a DC50 greater than 0.4 µM.
The compound `C[C@H]1CN(c2nc(Nc3ccc4c(c3)n(CCC(C)(C)O)c(=O)n4C)c(F)cc2C#N)C[C@@H](N)C1(F)F` [Compound 81, 2-((3R,5S)-3-Amino-4,4-difluoro-5-methylpiperidin-1-yl)-5-fluoro-6-((3-(3-hydroxy-3-methylbutyl)-1-methyl-2-oxo-2,3-dihydro-1H-benzo[d]imidazol-5-yl)amino)nicotinonitrile hydrochloride] registered a 50% degradation concentration (DC50) of 0.031 µM.
As for `C[C@@H]1CN(c2nc(Nc3ccc4c(c3)n(CCC(C)(C)O)c(=O)n4C)c(F)cc2C#N)C[C@H](O)C1(F)F` [Compound 82, 2-((3S,5R)-4,4-difluoro-3-hydroxy-5-methylpiperidin-1-yl)-5-fluoro-6-((3-(3-hydroxy-3-methylbutyl)-1-methyl-2-oxo-2,3-dihydro-1H-benzo[d]imidazol-5-yl)amino)nicotinonitrile], the DC50 worked out at 0.033 µM.
For the compound `C[C@@H]1CN(c2nc(Nc3ccc4c(c3)n(C[C@H]3CNC(=O)O3)c(=O)n4C)c(F)cc2C#N)C[C@H](N)C1(F)F` [Compound 84, 2-((3S,5R)-3-amino-4,4-difluoro-5-methylpiperidin-1-yl)-5-fluoro-6-((1-methyl-2-oxo-3-(((R)-2-oxooxazolidin-5-yl)methyl)-2,3-dihydro-1H-benzo[d]imidazol-5-yl)amino)nicotinonitrile], the DC50 is greater than 0.4 µM.
Still for that read-out and setting: the result for `C[C@H]1CN(c2nc(Nc3ccc4c(c3)n(C[C@@H]3CNC(=O)O3)c(=O)n4C)c(F)cc2C#N)C[C@@H](N)C1(F)F` [Compound 85, 2-[(3R,5S)-3-amino-4,4-difluoro-5-methyl-1-piperidyl]-5-fluoro-6-[[1-methyl-2-oxo-3-[[(5S)-2-oxooxazolidin-5-yl]methyl]benzimidazol-5-yl]amino]pyridine-3-carbonitrile] reads greater than 0.4 µM; that for `C[C@@H]1CN(c2nc(Nc3ccc4c(c3)n(C[C@H]3CNC(=O)O3)c(=O)n4C)c(F)cc2C#N)C[C@H](C)[C@@H]1F` [Compound 86, 5-Fluoro-2-((3S,4S,5R)-4-fluoro-3,5-dimethylpiperidin-1-yl)-6-((1-methyl-2-oxo-3-(((R)-2-oxooxazolidin-5-yl)methyl)-2,3-dihydro-1H-benzo[d]imidazol-5-yl)amino)nicotinonitrile], 0.083 µM; that for `C[C@@H]1CN(c2nc(Nc3ccc4c(c3)n(C[C@@H]3CNC(=O)O3)c(=O)n4C)c(F)cc2C#N)C[C@H](C)[C@@H]1F` [Compound 87, 5-Fluoro-2-[(3S,4S,5R)-4-fluoro-3,5-dimethyl-1-piperidyl]-6-[[1-methyl-2-oxo-3-[[(5S)-2-oxooxazolidin-5-yl]methyl]benzimidazol-5-yl]amino]pyridine-3-carbonitrile], 0.101 µM.
Turning to `C[C@@H]1CN(c2nc(Nc3ccc4c(c3)n(C[C@@H]3COC(=O)N3)c(=O)n4C)c(F)cc2C#N)C[C@H](C)[C@@H]1F` [Compound 88, 5-Fluoro-2-((3S,4S,5R)-4-fluoro-3,5-dimethylpiperidin-1-yl)-6-((1-methyl-2-oxo-3-(((R)-2-oxooxazolidin-4-yl)methyl)-2,3-dihydro-1H-benzo[d]imidazol-5-yl)amino)nicotinonitrile], the DC50 was 0.08 µM.
Compound `C[C@@H]1CN(c2nc(Nc3ccc4c(c3)n(C[C@H]3COC(=O)N3)c(=O)n4C)c(F)cc2C#N)C[C@H](C)[C@@H]1F` [Compound 89, 5-Fluoro-2-((3S,4S,5R)-4-fluoro-3,5-dimethylpiperidin-1-yl)-6-((1-methyl-2-oxo-3-(((S)-2-oxooxazolidin-4-yl)methyl)-2,3-dihydro-1H-benzo[d]imidazol-5-yl)amino)nicotinonitrile] yielded a 50% degradation concentration (DC50) of 0.102 µM.
The same measure, in the same setting: the result for `C[C@H](O)Cn1c(=O)n(CCC(C)(C)O)c2cc(Nc3nc(N4C[C@@H](N)C(F)(F)[C@@H](C)C4)c(C#N)cc3F)ccc21` [Compound 90, 2-((3R,5S)-3-Amino-4,4-difluoro-5-methylpiperidin-1-yl)-5-fluoro-6-((3-(3-hydroxy-3-methylbutyl)-1-((S)-2-hydroxypropyl)-2-oxo-2,3-dihydro-1H-benzo[d]imidazol-5-yl)amino)nicotinonitrile] reads 0.073 µM; that for `C[C@@H](O)Cn1c(=O)n(CCC(C)(C)O)c2cc(Nc3nc(N4C[C@@H](N)C(F)(F)[C@@H](C)C4)c(C#N)cc3F)ccc21` [Compound 91, 2-((3R,5S)-3-Amino-4,4-difluoro-5-methylpiperidin-1-yl)-5-fluoro-6-((3-(3-hydroxy-3-methylbutyl)-1-((R)-2-hydroxypropyl)-2-oxo-2,3-dihydro-1H-benzo[d]imidazol-5-yl)amino)nicotinonitrile], 0.118 µM.

In another test the test system is Su-DHL-4 cells. Description: CellTiter-Glo cell proliferation, BCL6 degrader with EZH2 inhibitors. Particulars: EZH2 inhibitor at 480 nM added to BCL6 degrader (compound 1); Su-DHL-4 cells; 60% growth inhibition. The test is classed as cell-based. The protocol: Enhancer of zeste homolog 2 (EZH2) is a member of the polycomb repressive complex 2 (PRC2) that methylates histone 3 lysine 27, a mark that is associated with gene repression.
To ensure HiBiT signal decrease was due to BCL6 degradation and not from dying cells, CellTiter-Glo® (CTG, Promega™) was performed on the same number of cells that were treated for 24 hours with BCL6 degraders. To study the anti-proliferative effects of BCL6 degraders and its synergistic effect with EZH2 inhibitors, Su-DHL-4 and other DLBCL cells were treated with the compounds at DC99, DC75, DC50, or 1 μM followed by 5 days of culture, at which point CTG values and/or Caspase3/7 activities were measured as percent DMSO treated.
(In general: Cellular ATP, detected with luciferase, serves as a proxy for viable cell number.)
Turning to `COc1cc(C)[nH]c(=O)c1CNC(=O)c1c(C)n([C@H](C)C2CCN(CC(F)(F)F)CC2)c2ccccc12` [Lira, Lirametostat, reference compound], the “reduction of BCL6 degrader dose requirement to achieve GI60” value is reported as “around 4.3 fold”.
